Data: US20260048036A1, “CRYSTALLINE FORMS OF A GLUCOSYLCERAMIDE SYNTHASE INHIBITOR AND USES THEREOF” (ACELINK THERAPEUTICS, INC., priority 2022, published 2026)
Numbering of substitutions follows the chain as printed. Where “and” joins values, the source holds several entries; their conditions need not be identical. Equal entries are not always repeated.

Tests used:
[1] = molecular target: T1, Glucosylceramide synthase (GCS) (Canis lupus familiaris, UniProt A0A8I3MXG6); test: GCS enzymatic assay with MDCK cell lysate; assay type: biochemical, canine
T1 construct: The MDCK, K-562, and L6 cell lines all endogenously express GCS enzyme; host or cells: MDCK (canine kidney) cell lysate
T1 sequence (A0A8I3MXG6 1-394): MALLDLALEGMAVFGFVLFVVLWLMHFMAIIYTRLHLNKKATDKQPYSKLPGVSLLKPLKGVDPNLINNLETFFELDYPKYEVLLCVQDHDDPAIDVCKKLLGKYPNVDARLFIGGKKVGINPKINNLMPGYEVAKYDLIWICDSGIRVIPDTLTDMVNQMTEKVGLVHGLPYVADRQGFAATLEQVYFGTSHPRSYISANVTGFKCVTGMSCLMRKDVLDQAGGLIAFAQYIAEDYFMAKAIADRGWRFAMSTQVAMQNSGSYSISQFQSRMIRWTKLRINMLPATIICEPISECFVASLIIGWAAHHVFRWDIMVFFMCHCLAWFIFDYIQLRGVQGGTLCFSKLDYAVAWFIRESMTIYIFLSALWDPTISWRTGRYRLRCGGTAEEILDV
Excerpt: (§1) The reaction product, C6-NBD-glucosylceramide, could then be detected and quantified by LC-MS/MS. The inventors used this method to test and validate the effect of various GCS inhibitors on GCS enzyme activity from different species.
(§2) The GCS enzyme activity was detected by using the fluorescent substrate, C6-NBD-ceramide, and monitoring the formation of the fluorescent reaction product, C6-NBD-glucosylceramide. First, the inventors used cell lysate derived from a canine kidney cell line (MDCK, ATCC Cat #CCL-34™) as the source of GCS and tested the inhibitory activity of several control and test compounds.
(§3) GCS activity was evaluated using a GCS enzyme assay derived from MDCK or L6 cell lysates.
(§4) MDCK or L6 cell lysates were prepared using M-PER in the presence of a protease inhibitor cocktail. Each 100 mm dish (100% confluent) was lysed with 250 μl of M-PER containing protease inhibitors. Protein concentration was determined using Pierce BCA protein assay kit.
The final concentration of DMSO was 0.1% in both compound treated and DMSO only treated samples. Each individual reaction was terminated with 11 volumes of methanol:acetonitrile (6:5; containing 200 ng/ml Tolbutamide as internal control). After sufficient mixing, reactions were centrifuged at 2000 rpm for 10 mins, supernatant was injected into the LC-MS/MS for analysis.
(§5) The quantitative analysis of C6-NBD-glucosylceramide was performed on a Shimadzu ultra-fast liquid chromatography coupled with API 4000 mass spectrometer. Analyst 1.5 software packages were used to control the LC-MS/MS system, as well as for data acquisition and processing.
(§6) The C6-NBD-glucosylceramide reading was normalized first by dividing the peak area of C6-NBD-glucosylceramide with the peak area of the internal standard, and then the amount was calculated according to the standard curve generated in the same assay run. For the cell based assay results, the amount of C6-NBD-glucosylceramide was also normalized by the protein concentration of the cell samples.
IC50 values were generated from sigmoidal dose-response (variable slope) curves with GraphPad Prism software (GraphPad Software, Inc., San Diego, CA) using the percent inhibition of C6-NBD-glucosylceramide accumulation relative to DMSO control.

[2] = molecular target: T2, Glucosylceramide synthase (GCS) (Rattus norvegicus, UniProt Q9R0E0); test: GCS enzymatic assay with L6 cell lysate; assay type: biochemical; settings: 1 μM, N = 1, N = 2
T2 construct: The MDCK, K-562, and L6 cell lines all endogenously express GCS enzyme; host or cells: L6 rat skeletal muscle cell lysate
T2 sequence (Q9R0E0 1-394): T1 sequence (A0A8I3MXG6 1-394) with L8Q, V13L, A29S, D96E, G131A, K164R, R249K, A251S, T377A
Excerpt: as §1, with “In this study, the inventors developed a reliable method to monitor GCS catalytic activity using the fluorescent substrate, C6-NBD-ceramide. The reaction” for “The reaction”
The MDCK, K-562, and L6 cell lines all endogenously express GCS enzyme and were used to test the effect of various GCS inhibitors on enzyme originating from different species. The GCS enzyme activity was detected by using the fluorescent substrate, C6-NBD-ceramide, and monitoring the formation of the fluorescent reaction product, C6-NBD-glucosylceramide. First, the inventors used cell lysate derived from a canine kidney cell line (MDCK, ATCC Cat #CCL-34™) as the source of GCS and tested the inhibitory activity of several control and test compounds. The inventors then used the human leukemia K-562 cell line (ATCC Cat #[…]) to test the effect of these GCS inhibitors on intact living cells. Finally, a cell lysate derived from a rat skeletal muscle cell line, L6 (ATCC Cat #[…]), was used to test the effect of these GCS inhibitors on rodent GCS enzyme.
as §3, §4
Sixty micrograms of MDCK lysate was incubated with various concentrations of compounds (0.00001 μM-1 μM) in 100 mM Tris buffer (pH 7.5) containing 10 mM MgCl2, 1 mM dithiothreitol, 1 mM EGTA, 2 mM NAD, 100 μM UDP-glucose, 10 μM C6-NBD-ceramide with 35 μM dioleoylphosphatidylcholine/5 μM sulfatide in a final reaction volume of 100 μl at 37° C. for 1 hour. The final concentration of DMSO was 0.1% in both compound treated and DMSO only treated samples. Each individual reaction was terminated with 11 volumes of methanol:acetonitrile (6:5; containing 200 ng/ml Tolbutamide as internal control). After sufficient mixing, reactions were centrifuged at 2000 rpm for 10 mins, supernatant was injected into the LC-MS/MS for analysis.
For the assay with L6 cell lysate, different amounts of L6 cell lysate were used.
as §5, §6
To confirm the inhibitory activity of test compounds on GCS from different species, cells from rat were used. First, the presence of GCS activity was verified using various amounts of L6 cell lysate (FIG. 34, Table 26).

[3] = Hygroscopicity by DVS at 25° C.; assay type: physicochemical; settings: for water uptake increased from 40% RH to 90% RH: DVS
[4] = Solid state stability, 1 week (HPLC purity, color, XRPD); settings: for Bulk (XRPD) / Purity, Bulk (HPLC): Solid state, 1 week; for Purity, Bulk (HPLC): initial purity 99.8%
[5] = molecular target: T3, Glucosylceramide synthase (GCS) (Homo sapiens, UniProt Q16739); test: GCS cell-based assay with live K-562 cells; settings: C6-NBD-glucosylceramide by LC-MS/MS
T3 construct: The MDCK, K-562, and L6 cell lines all endogenously express GCS enzyme; host or cells: K-562 human leukemia cells, live
T3 sequence (Q16739 1-394): T1 sequence (A0A8I3MXG6 1-394) with V20L, S196Y
Excerpt: as §1, §2, §5
as §6, with “samples. […]” for “samples.”

[6] = Solubility at 37° C. in pH buffers and bio-relevant media
[7] = 1 μM, 60 μg MDCK lysate/reaction, N = 1, N = 2

Compound: CCCCCCCC(=O)N[C@H](CN1CCCC1)[C@H](O)c1ccc2c(c1)OCCO2 [Eliglustat, reference compound]
- C6-NBD-Ceramide (Normalized to internal control) [1, 7]: 4.68 and 4.99
- C6-NBD-Glucosylceramide Concentration [1, 7]: 49.8 nM and 59.3 nM
- Inhibition [1, 7]: 94.01%
- inhibition at 1 µM [1, 7]: 95%
- IC50 ([1]; MDCK cell lysate as source of GCS, C6-NBD-glucosylceramide by LC-MS/MS): 0.0522 µM
- C6-NBD-Ceramide (Normalized to internal control) ([2]; 30 μg L6 lysate/reaction): 5.98 and 6.37
- C6-NBD-Glucosylceramide Concentration ([2]; 30 μg L6 lysate/reaction): 31.2 nM and 51.0 nM
- Inhibition ([2]; 30 μg L6 lysate/reaction): 92.48%
- inhibition at 1 µM ([2]; 30 μg L6 lysate/reaction): 95.4%
- C6-NBD-Ceramide (Normalized to internal control) ([2]; 60 μg L6 lysate/reaction): 6.47 and 5.46
- C6-NBD-Glucosylceramide Concentration ([2]; 60 μg L6 lysate/reaction): 50.2 nM and 44.1 nM
- Inhibition ([2]; 60 μg L6 lysate/reaction): 96.04%
- inhibition at 1 µM ([2]; 60 μg L6 lysate/reaction): 95.5%
- C6-NBD-Ceramide (Normalized to internal control) ([2]; 120 μg L6 lysate/reaction): 5.82 and 6.23
- C6-NBD-Glucosylceramide Concentration ([2]; 120 μg L6 lysate/reaction): 48.4 nM and 57.9 nM
- Inhibition ([2]; 120 μg L6 lysate/reaction): 95.77%
- inhibition at 1 µM ([2]; 120 μg L6 lysate/reaction): 96.5%
- C6-NBD-Ceramide (Normalized to internal control) ([2]; 180 μg L6 lysate/reaction): 5.60 and 5.41
- C6-NBD-Glucosylceramide Concentration ([2]; 180 μg L6 lysate/reaction): 63.6 nM and 63.3 nM
- Inhibition ([2]; 180 μg L6 lysate/reaction): 95.22%
- inhibition at 1 µM ([2]; 180 μg L6 lysate/reaction): 95.2%
- C6-NBD-Ceramide (Normalized to internal control) ([2]; 240 μg L6 lysate/reaction): 4.96 and 5.12
- C6-NBD-Glucosylceramide Concentration ([2]; 240 μg L6 lysate/reaction): 56.2 nM and 57.7 nM
- Inhibition ([2]; 240 μg L6 lysate/reaction): 95.21%
- inhibition at 1 µM ([2]; 240 μg L6 lysate/reaction): 95.3%

Compound: O=C(N[C@H](CN1CCCC1)[C@H](O)c1ccc(OC2CC2)c(Cl)c1)/C(=N/O)c1ccc2cc(Cl)ccc2c1.O=C(O)C(O)C(O)C(=O)O
- XRPD after DVS test [3]: No form change
- hygroscopicity (DVS) [3]: slightly hygroscopic
- Desorp. (DVS) ([3]; 0% RH): 0.00%
- Sorp. (water uptake by DVS) ([3]; 0% RH): 0.00%
- Desorp. (DVS) ([3]; 10% RH): 0.07%
- Sorp. (water uptake by DVS) ([3]; 10% RH): 0.04%
- Desorp. (DVS) ([3]; 20% RH): 0.12%
- Sorp. (water uptake by DVS) ([3]; 20% RH): 0.09%
- Desorp. (DVS) ([3]; 30% RH): 0.18%
- Sorp. (water uptake by DVS) ([3]; 30% RH): 0.14%
- Desorp. (DVS) ([3]; 40% RH): 0.22%
- Sorp. (water uptake by DVS) ([3]; 40% RH): 0.18%
- Sorp. (water uptake by DVS) ([3]; 50% RH): 0.25%
- Sorp. (water uptake by DVS) ([3]; 60% RH): 0.28%
- Sorp. (water uptake by DVS) ([3]; 70% RH): 0.35%
- Sorp. (water uptake by DVS) ([3]; 80% RH): 0.42%
- Sorp. (water uptake by DVS) ([3]; 90% RH): 0.57%
- water uptake increased from 40% RH to 90% RH [3]: about 0.39%
- Bulk (XRPD) ([4]; 25° C./92% RH, open container): No form change
- Purity, Bulk (HPLC) ([4]; 25° C./92% RH, open container): 99.8%
- Bulk (XRPD) ([4]; 40° C./75% RH, open container): No form change
- Purity, Bulk (HPLC) ([4]; 40° C./75% RH, open container): 99.8%
- Bulk (XRPD) ([4]; 60° C., tight container): No form change
- Purity, Bulk (HPLC) ([4]; 60° C., tight container): 99.8%

Compound: O=C(N[C@H](CN1CCCC1)[C@H](O)c1ccc(OC2CC2)c(Cl)c1)/C(=N\O)c1ccc2cc(Cl)ccc2c1 [Geometric isomer of Compound 1]
- IC50 [5]: 0.0148 µM

Compound: O=C(N[C@H](CN1CCCC1)[C@H](O)c1ccc(OC2CC2)c(Cl)c1)/C(=N/O)c1ccc2cc(Cl)ccc2c1 [Compound 1, (E)-N-((1R,2R)-1-(3-chloro-4-cyclopropoxyphenyl)-1-hydroxy-3-(pyrrolidin-1-yl)propan-2-yl)-2-(6-chloronaphthalen-2-yl)-2-(hydroxyimino)acetamide]
- pH dependence of solubility ([6]; […]): typical pH dependent solubility

Compound: O=C(N[C@H](CN1CCCC1)[C@H](O)c1ccc(OC2CC2)c(Cl)c1)/C(=N/O)c1ccc2cc(Cl)ccc2c1.O=C(O)C[C@H](O)C(=O)O
- XRPD after DVS test [3]: No form change
- hygroscopicity (DVS) [3]: slightly hygroscopic
- Desorp. (DVS) ([3]; 0% RH): 0.17%
- Sorp. (water uptake by DVS) ([3]; 0% RH): 0.17%
- Desorp. (DVS) ([3]; 10% RH): 0.22%
- Sorp. (water uptake by DVS) ([3]; 10% RH): 0.22%
- Desorp. (DVS) ([3]; 20% RH): 0.26%
- Sorp. (water uptake by DVS) ([3]; 20% RH): 0.26%
- Desorp. (DVS) ([3]; 30% RH): 0.30%
- Sorp. (water uptake by DVS) ([3]; 30% RH): 0.30%
- Desorp. (DVS) ([3]; 40% RH): 0.33%
- Sorp. (water uptake by DVS) ([3]; 40% RH): 0.33%
- Sorp. (water uptake by DVS) ([3]; 50% RH): 0.36%
- Sorp. (water uptake by DVS) ([3]; 60% RH): 0.40%
- Sorp. (water uptake by DVS) ([3]; 70% RH): 0.48%
- Sorp. (water uptake by DVS) ([3]; 80% RH): 0.56%
- Sorp. (water uptake by DVS) ([3]; 90% RH): 0.92%
- water uptake increased from 40% RH to 90% RH [3]: about 0.59%
- chemical and physical stability ([4]; 25° C./92% RH open container, 40° C./75% RH open container, 60° C. tight container, one week): chemically and physically stable
- Bulk (XRPD) ([4]; 25° C./92% RH, open container): No form change
- Purity, Bulk (HPLC) ([4]; 25° C./92% RH, open container): 99.8%
- Bulk (XRPD) ([4]; 40° C./75% RH, open container): No form change
- Purity, Bulk (HPLC) ([4]; 40° C./75% RH, open container): 99.8%
- Bulk (XRPD) ([4]; 60° C., tight container): No form change
- Purity, Bulk (HPLC) ([4]; 60° C., tight container): 99.8%
- higher solubility than that of the free form Crystalline Form A of Compound 1 ([6]; pH 4.5 buffer, 37° C.): about 3 folds
